Like-named read-outs stand apart in the source and are kept apart here.
Experiments:
[1] = system: mechanical allodynia of the post-operative pain model in rats; assay: Mechanical allodynia (von Frey filaments) in the post-operative pain model (plantar incision) in rats; assay type: in vivo; details: for doses producing significant effect, Sigma antagonist alone: BD1063 alone 20, 40 and 80 mg/kg, compound 63.HCl alone 10, 20, 40 and 80 mg/kg
Description: The induction of anesthesia in rats was performed with 3% isofluran for veterinary use, employing an Ohmeda vaporizer and an anesthesia chamber. Anesthesia was kept during the surgical operation by a tube which directs the isofluran vapors to the animal's snout. Once the rats were anesthetized, they were laid down in a prone position and their right hind paws were cleaned out with alcohol. Then, a skin incision in the hindpaw of about 10 mm was made by means of a scalpel, starting about 5 mm from the heel and extending toward the toes. Fascia was located and by means of curve scissors muscle was elevated and a longitudinal incision of about 5 mm was made, thus the muscle origin and insertion remained intact. The skin of the paw was stitched with a suturing stitch with breaded silk (3.0) and the wound was cleaned out with povidone. The assessment was performed 30 minutes after the administration of product and always 4 hours after the plantar incision. The analysis was carried out evaluating the mechanical allodynia. It was tested using von Frey filaments: Animals were placed in methacrylate cylinders on an elevated surface, with metallic mesh floor perforated in order to apply the filaments. […] The animal's response to pain was manifested by the withdrawal of the paw as a consequence of the painful stimulus caused by a filament.

σ1 receptors = details: rodent brain membranes and human neuroblastoma cells, cited from earlier work
sigma-1 receptors = details: both in experimental animals and human cells; cited from earlier work
D2 receptors = details: rodent brain membranes and human neuroblastoma cells; compared with haloperidol; cited from earlier work

CC(=O)Nc1ccc(O)cc1 [Paracetamol]
Mean of the porcentage of analgesia in the post-operative pain model, Compounds alone ([1]; dose 20 mg/kg): 13% | effect of NSAID alone ([1]; rats, NSAID alone 20 mg/kg): no significant effect

Cc1ccc(-c2cc(C(F)(F)F)nn2-c2ccc(S(N)(=O)=O)cc2)cc1 [Celecoxib]
Mean of the porcentage of analgesia in the post-operative pain model, Compounds alone ([1]; dose 0.625 mg/kg): 13% | effect of NSAID alone ([1]; rats, NSAID alone 0.625 mg/kg): no significant effect

O=C(O)Cc1ccccc1Nc1c(Cl)cccc1Cl [Diclofenac]
Mean of the porcentage of analgesia in the post-operative pain model, Compounds alone ([1]; dose 0.625 mg/kg): 13% | effect of NSAID alone ([1]; rats, NSAID alone 0.312 mg/kg): no significant effect

COc1ccc2cc([C@H](C)C(=O)O)ccc2c1 [Naproxen]
Mean of the porcentage of analgesia in the post-operative pain model, Compounds alone ([1]; dose 0.312 mg/kg): 13% | effect of NSAID alone ([1]; rats, NSAID alone 0.312 mg/kg): no significant effect

OC(CCCN1CCC(O)(c2ccc(Cl)cc2)CC1)c1ccc(F)cc1 (centres unmarked) [metabolite II, 4-(4-chlorophenyl)-[…]-(4-fluorophenyl)-4-hydroxy-1-piperidinebutanol]
affinity for σ1 (sigma-1) receptors (σ1 receptors): less affinity than haloperidol | affinity for σ1 (sigma-1) receptors (σ1 receptors; listed as Reduced haloperidol): high affinity (in the low nanomolar range) | blockade of sigma-1 receptors (sigma-1 receptors): irreversible blockade | affinity for D2 receptors (D2 receptors): much lower

CC(C)Cc1ccc(C(C)C(=O)O)cc1 (centres unmarked) [Ibuprofen]
Mean of the porcentage of analgesia in the post-operative pain model, Compounds alone ([1]; dose 0.625 mg/kg): 16% | effect of NSAID alone ([1]; rats, NSAID alone 0.625 mg/kg): no significant effect

OC1(c2ccc(Cl)cc2)CCNCC1 [metabolite I, 4-(4-chlorophenyl)-4-hydroxypiperidine]
affinity for σ1 (sigma-1) receptors (σ1 receptors): less affinity than haloperidol | affinity for D2 receptors (D2 receptors): no affinity

Cc1cc(OCCN2CCOCC2)nn1-c1ccc2ccccc2c1 [compound 63, 4-{2-[5-Methyl-1-(naphthalen-2-yl)-1H-pyrazol-3-yloxy]ethyl}morpholine]
Mean of the porcentage of analgesia in the post-operative pain model, Compounds alone ([1]; dose 10 mg/kg): 2% | Mean of the porcentage of analgesia in the post-operative pain model, Compounds alone ([1]; dose 20 mg/kg): 15% | Mean of the porcentage of analgesia in the post-operative pain model, Compounds alone ([1]; dose 40 mg/kg): 43% | Mean of the porcentage of analgesia in the post-operative pain model, Compounds alone ([1]; dose 80 mg/kg): 41%

CN1CCN(CCc2ccc(Cl)c(Cl)c2)CC1 [BD1063, 1-[2-(3,4-dichlorophenyl)ethyl]-4-methylpiperazine]
ED50 ([1]; Rattus norvegicus, rats, compound alone, administered 3.5 hours after surgery, assessed 30 minutes after administration, 4 hours after plantar incision, read-out: ED50 (dose-dependent effect), Sigma antagonist alone): 56.2 mg/kg | doses producing significant effect, Sigma antagonist alone ([1]; rats): significant effect only at 40 and 80 mg/kg

Cc1c(N(C)CS(=O)(=O)O)c(=O)n(-c2ccccc2)n1C [Metamizole]
Mean of the porcentage of analgesia in the post-operative pain model, Compounds alone ([1]; dose 0.156 mg/kg): 14% | effect of NSAID alone ([1]; rats, NSAID alone 0.156 mg/kg): no significant effect

Cc1cc(OCCN2CCOCC2)nn1-c1ccc2ccccc2c1.Cl [compound 63.HCl, 4-{2-[5-Methyl-1-(naphthalen-2-yl)-1H-pyrazol-3-yloxy]ethyl}morpholine hydrochloride]
doses producing significant effect, Sigma antagonist alone ([1]; rats): significant effect only at 40 and 80 mg/kg | maximum effect / maximum efficacy, Sigma antagonist alone ([1]; rats, compound alone (10, 20, 40 and 80 mg/kg), without sub-active dose of NSAID, 3.5 hours after surgery): 43%
